# From ChEMBL document CHEMBL4043066, “Drug Discovery Targeting Bromodomain-Containing Protein 4” (J Med Chem, 2017)
# Key:
# [1] = molecular target: T1, Bromodomain-containing protein 4 (Homo sapiens, UniProt O60885); experiment: Inhibition of His-tagged BRD4 (44 to 477 residues) (unknown origin) using acetyl-histone H4 as substrate after 35 mins by TR-FRET assay
# MV4-11 [2] = experiment: Growth inhibition of human MV4-11 cells after 4 days by CellTiter-Glo assay; format: functional; details: MV4-11, 96 h
# MV4-11 [3] = experiment: Antiproliferative activity against human MV4-11 cells; format: functional, cell-based
# [4] = Metabolic stability in CD1 mouse liver microsomes assessed as compound remaining at 1 uM after 30 mins in presence of NADPH by LC/MS analysis; format: ADME, microsome; details: read-out: Stability
# [5] = Metabolic stability in human liver microsomes assessed as compound remaining at 1 uM after 30 mins in presence of NADPH by LC/MS analysis; format: ADME, microsome; details: read-out: Stability
# MV4-11 [6] = experiment: Antiproliferative activity against human MV4-11 cells after 72 hrs by alamarBlue assay; format: functional, cell-based; details: MV4-11, 72 h
# [7] = molecular target: T1, Bromodomain-containing protein 4; experiment: Inhibition of BRD4 bromodomain 1 (unknown origin) using biotinylated substrate after 1 hr by AlphaLisa assay
# MT4 = experiment: Antiproliferative activity against human MT4 cells after 5 days by CellTiter-Glo assay; format: functional; details: MT4, 120 h
# [8] = molecular target: T1, Bromodomain-containing protein 4; experiment: Inhibition of recombinant human His-tagged BRD4 bromodomain 1 (44 to 168 residues) expressed in Escherichia coli BL21(DE3) after 30 mins by AlphaScreen assay
# [9] = molecular target: T1, Bromodomain-containing protein 4; experiment: Inhibition of GST-tagged BRD4 (unknown origin) using biotinylated acetyl-histone H4 peptide as substrate after 30 mins by AlphaScreen assay
# MV4-11 [10] = experiment: Antiproliferative activity against human MV4-11 cells after 4 days by CellTiter-Glo assay; format: functional, cell-based; details: MV4-11, 96 h
# MX1 [11] = experiment: Antiproliferative activity against human MX1 cells incubated for >= 72 hrs by CellTiter-Glo assay; format: functional, cell-based; details: MX1, 72 h
# [12] = molecular target: T1, Bromodomain-containing protein 4; experiment: Inhibition of GST-tagged BRD4 bromodomain 1 (44 to 168 residues) (unknown origin) using biotinylated acetyl-histone H4 peptide as substrate after 30 mins in dark by AlphaScreen assay
# [13] = molecular target: T1, Bromodomain-containing protein 4; experiment: Inhibition of His-tagged BRD4 bromodomain 1 (K57 to E168 residues) (unknown origin) after 1 hr by TR-FRET assay
# [14] = molecular target: T1, Bromodomain-containing protein 4; experiment: Inhibition of His-tagged BRD4 bromodomain 2 (E352 to E168 residues) (unknown origin) after 1 hr by TR-FRET assay
# MX1 [15] = experiment: Antiproliferative activity against human MX1 cells after 72 hrs by CellTiter-Glo assay; format: functional, cell-based; details: MX1, 72 h
# [16] = molecular target: T1, Bromodomain-containing protein 4; experiment: Inhibition of His-epitope tagged BRD4 bromodomain 1 (44 to 168 residues) (unknown origin) using biotinylated histone H4 as substrate after 1 hr by AlphaScreen assay
# [17] = molecular target: T1, Bromodomain-containing protein 4; experiment: Inhibition of His-epitope tagged BRD4 bromodomain 2 (333 to 460 residues) (unknown origin) using biotinylated histone H4 as substrate after 1 hr by AlphaScreen assay
# [18] = molecular target: T1, Bromodomain-containing protein 4; experiment: Inhibition of recombinant His-tagged BRD4 (unknown origin) using biotinylated acetyl-histone H4 as substrate by AlphaLisa assay
# Mus musculus = organism: Mus musculus; experiment: Antiinflammatory activity in CD1 mouse assessed as inhibition of LPS-induced IL-6 production pretreated for 1 hr followed by LPS stimulation after 2 hrs by immunoassay relative to control; format: functional
structure (smiles),measurement,setting,value
CC(=O)N1CC(n2cc(C3CC3)c3c2C(c2ccc(Cl)cc2)N(c2cc(C)c4nnn(C)c4n2)C3=O)C1 (stereo unspecified),IC50,[1],< 11 nM
same,GI50,MV4-11 [2],0.3 nM
Cc1noc(C)c1-c1ccc2c(c1)C(c1ccsc1)(N1CCC[C@H](N)C1)C(=O)N2 (stereo partly specified),IC50,MV4-11 [3],34 nM
COc1cc2c(cc1-c1c(C)noc1C)ncc1nc(C3CCOCC3)n([C@H](C)COC(F)F)c12,"remaining at 0.5 h, 1 µM",[4],56%
same,"remaining at 0.5 h, 1 µM",[5],43%
CCOC(=O)CC1N=C(c2ccc(Cl)cc2)c2cc(OC)ccc2-c2cn(C)c(=O)cc21 (stereo unspecified),EC50,MV4-11 [6],2 nM
same,IC50,[7],3 nM
Cc1noc(C)c1-c1cc(-c2c(C3CC3)n[nH]c2C2CC2)c2[nH]c(=O)[nH]c2c1,CC50,MT4,9.1 nM
CC1=C(C)C2C(c3ccc(Cl)cc3)=N[C@@H](CC(=O)NCCOCCOCCOCCOCCOCCOCCOCCNC(=O)C[C@@H]3N=C(c4ccc(Cl)cc4)c4c(sc(C)c4C)-n4c(C)nnc43)c3nnc(C)n3C2S1 (stereo partly specified),IC50,MV4-11 [3],0.17 nM
same,IC50,[8],3.1 nM
COc1ncccc1-c1c(C2CC2)c2c(n1C)C(c1ccc(Cl)cc1)N(c1cc(C)c3nnc(C)n3c1)C2=O (stereo unspecified),IC50,[1],< 11 nM
same,GI50,MV4-11 [2],3 nM
Cc1noc(C)c1-c1ccc2c(c1)C(c1ccccc1)N1CCCOC21 (stereo unspecified),IC50,[9],36 nM
CNC(=O)N1N=C(c2ccc(N3C[C@H]4CC[C@@H](C3)O4)cc2)c2cc(OC)c(OC)cc2C[C@@H]1C,IC50,MV4-11 [6],30 nM
CCn1nc(C)c2c1C(=O)N(c1cc(C)c(=O)n(C)c1)C2c1ccc(Cl)cc1F (stereo unspecified),IC50,MV4-11 [10],7.7 nM
COc1cc2c(cc1-c1c(C)noc1C)ncc1nc(CN3CCOCC3)n([C@H](C)COC(F)F)c12,"remaining at 0.5 h, 1 µM",[4],3.7%
same,"remaining at 0.5 h, 1 µM",[5],1.9%
Cc1noc(C)c1-c1ccc2c(c1)[C@H](c1ccccc1)N(C)C2=O,IC50,[9],14 nM
COc1ccc(S(=O)(=O)Nc2cccc(Oc3ccc(S(C)(=O)=O)cc3-c3cn(C)c(=O)c4[nH]ccc34)c2)cc1,EC50,MX1 [11],97 nM
Cc1cc(-c2nc3ccc(N4CCOC[C@@H]4C)cc3n2[C@@H](C)c2ccccc2)cn(C)c1=O,IC50,[12],12 nM
COC[C@@H](C)n1c(-c2cn3c(C)nnc3c(NC(C)C)n2)nc2cc3c(cc21)N(C(C)C)S(=O)(=O)C3(C)C,IC50,[12],17 nM
COc1cc2c(cc1-c1c(C)noc1C)ncc1nc(C3CCC(F)(F)CC3)n([C@H](C)COC(F)F)c12,"remaining at 0.5 h, 1 µM",[4],35%
same,"remaining at 0.5 h, 1 µM",[5],62%
Cn1cc(-c2cc(S(C)(=O)=O)ccc2N[C@H]2CC[C@H](NCc3ccc4ccccc4c3)CC2)c2cc[nH]c2c1=O,Ki,[13],1.1 nM
same,Ki,[14],2.2 nM
same,EC50,MX1 [11],10 nM
Cc1cc(N2C(=O)c3c(C4CC4)cn(C4COC4)c3C2c2ccc(Cl)cc2)cn2c(C)nnc12 (stereo unspecified),GI50,MV4-11 [2],2.9 nM
Cc1noc(C)c1-c1ccc2c(c1)C(O)(c1ccccc1)C(=O)N2 (stereo unspecified),IC50,MV4-11 [3],58 nM
CCNC(=O)CC1N=C(C2CCCCC2)c2cc(OC)ccc2-c2cn(C)c(=O)cc21 (stereo unspecified),EC50,MV4-11 [6],8 nM
Cc1noc(C)c1-c1cc(C(O)(c2cnccn2)c2c(F)cccc2F)c2[nH]c(=O)[nH]c2c1 (stereo unspecified),CC50,MT4,9.7 nM
CCOc1cc(=O)n(C)cc1-c1cc(N(CC2CC2)S(=O)(=O)CC)ccc1Oc1ccc(F)cc1F,EC50,MX1 [15],233 nM
CC(=O)N1c2ccc(-c3cnn(C4CC4)c3)cc2C(OC[C@H]2CC2(F)F)C[C@H]1C (stereo partly specified),IC50,[16],< 100 nM
same,IC50,[17],< 50 nM
CCS(=O)(=O)c1ccc2c(c1)-c1cn(C)c(=O)cc1OCCCCc1cc(F)cc(F)c1O2,EC50,MX1 [15],8.7 nM
same,IC50,[18],1.3 nM
same,inhibition (INH),Mus musculus,81%
